{
  "source": "patent US20090192192A1",
  "about": "“INHIBITORS OF BIOFILM FORMATION OF GRAM-POSITIVE AND GRAM-NEGATIVE BACTERIA” (priority 2007, published 2009)",
  "data": [
    {"system": "Pseudomonas aeruginosa PAO1", "test": "MBEC assay, biofilm formation of P. aeruginosa PAO1", "type": "cell-based", "settings": "compound concentration 100 μM, class symbols", "experimental": "The compound to be tested was dissolved in DMSO to obtain a concentration that was 100 times that of the final concentration required (1 mM for the 10 μM assay and 10 mM for the 100 μM assay). 1.5 μL of the above solution was placed into each well of a 96 well plate (final volume in each well=150 μL, final DMSO concentration of 1% (v/v)).\nTo grow the organism and form a biofilm, a cryogenic stock of the test organism (at −70° C.) was used. A first sub-culture was streaked out onto TSA (tryptic soy agar), upon which the plate was incubated at 35±2° C. for 24 hours and stored wrapped in parafilm at 4° C. afterwards. From this first sub-culture, a second sub-culture was streaked out onto TSA. The plate was incubated at 35±2° C. for 24 hours. The second sub-culture was used within 24 hours starting from the time it was first removed from incubation. Using the second sub-culture an inoculum in 3 mL sterile water that matches a 0.5 McFarland Standard (1.5×10^8 cells per mL) was created in a glass test tube using a sterile cotton swab. 2.2 mL of this solution was diluted in 22 mL 100% TSB (tryptic soy broth) medium to a cell density of approximately […]. The diluted organism was inverted 3-5 times to achieve uniform mixing of the organism. One sample (100 μl) of the diluted organism was used for an inoculum check by serially diluting and spot plating on TSA.\nTo prepare a challenge plate, […] of the diluted organism was added to each well of a 96 well plate except the sterility control wells. The test compounds were added to the wells to make up final concentrations of 10 μM and […] (1.5 μL/well) in the designated location in the test plate. 128.5 μL of 100% universal neutralizer (1% Tween 80 in Cation Adjusted Mueller Hinton Broth, CAMHB) was placed in each of the wells. 130 μL of media was added to the growth control wells. 128.5 μL of media+1.5 μL of DMSO were added to a second set of growth control wells. 150 μL of media was added to the sterility controls. Each sample was run in triplicate. The plate was covered by a lid with a peg per well and wrapped in parafilm and placed on a shaker in a humidified incubator (GeneVac) at 35±+2° C. for 24 hours set at 110 rpm.\nRinse plate(s) of 0.9% saline (200 μL per well) were prepared in a sterile 96 well microtitre plate. Lid-associated pegs were rinsed in 0.9% saline for approximately 1-2 minutes. The peg lid was transferred to the recovery media (1.0% Tween 80 in CAMHB) then sonicated for 30 minutes to dislodge surviving biofilm. Following sonication, 100 μL from each well of the 96 well plate was placed into the first 12 wells of the first row of a 96 well microtiter plate. 180 μl of 0.9% sterile saline was placed in the remaining rows. A serial dilution (10^0-10^7) was prepared by moving 20 μl down each of the 8 rows. 20 μl from each well was removed and spot plated on a prepared TSA. In the remaining recovery plate, 100 μl of fresh growth media (1.0% Tween 80 in CAMHB) was placed in each well to replace the amount removed. The recovery plate was covered with a regular lid and incubated at 35±2° C. for 24 hours and read visually to confirm antimicrobial activity of the test compounds.\nThe compounds of the present disclosure have been tested regarding their efficiency to inhibit biofilm formation of Staphylococcus aureus U of C#18 (MRSA), Staphylococcus aureus 456 (MRSA), Staphylococcus epidermidis RP62A, and Pseudomonas aeruginosa PAO1.", "units": {"inhibition at 100 µM": "%"}, "values": [
      {"smiles": "CCCCCCCCCOCC(=O)Nc1ccnn1CC", "note": "[Example 105, N-(1-ethylpyrazol-5-yl)-2-(nonyloxy)acetamide]", "inhibition at 100 µM": "> 50"},
      {"smiles": "CCCCCCCCCOCC(=O)Nc1cc(C2CC2)nn1C", "note": "[Example 106, N-(3-cyclopropyl-1-methylpyrazol-5-yl)-2-(nonyloxy)acetamide]", "inhibition at 100 µM": "> 50"},
      {"smiles": "CCCCCCCCCOCC(=O)Nc1cc(C(C)(C)C)nn1C", "note": "[Example 107, N-(3-tert-butyl-1-methylpyrazol-5-yl)-2-(nonyloxy)acetamide]", "inhibition at 100 µM": "> 50"},
      {"smiles": "CCCCCCCCCOCC(=O)Nc1cc(-c2ccccc2)nn1C", "note": "[Example 108, N-(1-methyl-3-phenylpyrazol-5-yl)-2-(nonyloxy)acetamide]", "inhibition at 100 µM": "> 50"},
      {"smiles": "CCCCCCCCCOCC(=O)Nc1cc(C(C)(C)C)on1", "note": "[Example 109, N-(5-tert-butylisoxazol-3-yl)-2-(nonyloxy)acetamide]", "inhibition at 100 µM": "20 to 50"},
      {"smiles": "CCCCCCCCCOCC(=O)Nc1nnc(-c2ccccc2)s1", "note": "[Example 110, 2-(nonyloxy)-N-(5-phenyl-1,3,4-thiadiazol-2-yl)acetamide]", "inhibition at 100 µM": "< 20"},
      {"smiles": "CCCCCCCCCOCC(=O)N[C@H]1CCOC1=O", "note": "[Example 111, N-(2-nonyloxyacetyl)-L-homoserinelactone]", "inhibition at 100 µM": "< 20"},
      {"smiles": "CCCCCCCCOCCC(=O)N[C@H]1CCOC1=O", "note": "[Example 112, N-(3-octyloxypropanoyl)-L-homoserinelactone]", "inhibition at 100 µM": "< 20"},
      {"smiles": "CCCCCCCCOCCC(=O)N[C@@H](C)c1ccccc1", "note": "[Example 113, (S)-3-(octyloxy)-N-(1-phenylethyl)propanamide]", "inhibition at 100 µM": "> 50"},
      {"smiles": "CCCCCCCCOCCC(=O)Nc1cc(C)nn1C", "note": "[Example 114, N-(1,3-dimethylpyrazol-5-yl)-3-(octyloxy)propanamide]", "inhibition at 100 µM": "20 to 50"},
      {"smiles": "CCCCCCCCOCCC(=O)Nc1cc(C2CC2)nn1C", "note": "[Example 115, N-(3-cyclopropyl-1-methylpyrazol-5-yl)-3-(octyloxy)propanamide]", "inhibition at 100 µM": "> 50"},
      {"smiles": "CCCCCCCCOCCC(=O)Nc1cc(C(C)(C)C)nn1C", "note": "[Example 116, N-(3-tert-butyl-1-methylpyrazol-5-yl)-3-(octyloxy)propanamide]", "inhibition at 100 µM": "> 50"},
      {"smiles": "CCCCCCCCOCCC(=O)Nc1cc(-c2ccccc2)nn1C", "note": "[Example 117, N-(1-methyl-3-phenylpyrazol-5-yl)-3-(octyloxy)propanamide]", "inhibition at 100 µM": "> 50"},
      {"smiles": "CCCCCCCCOCCC(=O)Nc1nnc(-c2ccccc2)s1", "note": "[Example 118, 3-(octyloxy)-N-(5-phenyl-1,3,4-thiadiazol-2-yl)propanamide]", "inhibition at 100 µM": "< 20"},
      {"smiles": "CCCCOCCOCC(=O)N(C)c1ccc(F)cc1", "note": "[Example 119, 2-(2-butoxyethoxy)-N-(4-fluorophenyl)-N-methylacetamide]", "inhibition at 100 µM": "< 20"},
      {"smiles": "CCCCOCCOCC(=O)Nc1ccc(F)cc1C(F)(F)F", "note": "[Example 120, 2-(2-butoxyethoxy)-N-(4-fluoro-2-(trifluoromethyl)phenyl)acetamide]", "inhibition at 100 µM": "20 to 50"},
      {"smiles": "CCCCOCCOCC(=O)N[C@@H](C)c1ccccc1", "note": "[Example 121, (S)-2-(2-butoxyethoxy)-N-(1-phenylethyl)acetamide]", "inhibition at 100 µM": "< 20"},
      {"smiles": "CCCCOCCOCC(=O)Nc1cc(C)nn1C", "note": "[Example 122, 2-(2-butoxyethoxy)-N-(1,3-dimethylpyrazol-5-yl)acetamide]", "inhibition at 100 µM": "< 20"},
      {"smiles": "CCCCOCCOCC(=O)Nc1cc(C)ns1", "note": "[Example 123, 2-(2-butoxyethoxy)-N-(3-methylisothiazol-5-yl)acetamide]", "inhibition at 100 µM": "< 20"},
      {"smiles": "CCCCOCCOCC(=O)Nc1cc(-c2ccccc2)nn1C", "note": "[Example 124, 2-(2-butoxyethoxy)-N-(1-methyl-3-phenylpyrazol-5-yl)acetamide]", "inhibition at 100 µM": "20 to 50"},
      {"smiles": "COCCOCCOCC(=O)N(C)c1ccc(F)cc1", "note": "[Example 125, N-(4-fluorophenyl)-2-(2-(2-methoxyethoxy)ethoxy)-N-methylacetamide]", "inhibition at 100 µM": "< 20"},
      {"smiles": "COCCOCCOCC(=O)Nc1ccc(F)cc1C(F)(F)F", "note": "[Example 126, N-(4-fluoro-2-(trifluoromethyl)phenyl)-2-(2-(2-methoxyethoxy)ethoxy)acetamide]", "inhibition at 100 µM": "< 20"},
      {"smiles": "COCCOCCOCC(=O)N[C@@H](C)c1ccccc1", "note": "[Example 127, (S)-2-(2-(2-methoxyethoxy)ethoxy)-N-(1-phenylethyl)acetamide]", "inhibition at 100 µM": "< 20"},
      {"smiles": "COCCOCCOCC(=O)Nc1cc(C)nn1C", "note": "[Example 128, N-(1,3-dimethylpyrazol-5-yl)-2-(2-(2-methoxyethoxy)ethoxy)acetamide]", "inhibition at 100 µM": "< 20"},
      {"smiles": "COCCOCCOCC(=O)Nc1cc(C)ns1", "note": "[Example 129, 2-(2-(2-methoxyethoxy)ethoxy)-N-(3-methylisothiazol-5-yl)acetamide]", "inhibition at 100 µM": "< 20"},
      {"smiles": "CCCCCCCCCCCC(=O)N1CCCC(C(N)=O)C1", "note": "(centres unmarked) [Example 130, 1-dodecanoylpiperidine-3-carboxamide]", "inhibition at 100 µM": "> 50"},
      {"smiles": "CCCCCCCCCCCC(=O)N1CCC(C(N)=O)CC1", "note": "[Example 131, 1-dodecanoylpiperidine-4-carboxamide]", "inhibition at 100 µM": "20 to 50"},
      {"smiles": "CCCCCCCCCCCC(=O)N1CCCC(C(=O)NC)C1", "note": "(centres unmarked) [Example 132, 1-dodecanoyl-N-methylpiperidine-3-carboxamide]", "inhibition at 100 µM": "> 50"},
      {"smiles": "CCCCCCCCCCCC(=O)N1CCCC(C(=O)NCC)C1", "note": "(centres unmarked) [Example 133, 1-dodecanoyl-N-ethylpiperidine-3-carboxamide]", "inhibition at 100 µM": "> 50"},
      {"smiles": "CCCCCCCCCCCC(=O)N1CCCC(C(=O)NCC(C)C)C1", "note": "(centres unmarked) [Example 134, 1-dodecanoyl-N-isobutylpiperidine-3-carboxamide]", "inhibition at 100 µM": "20 to 50"},
      {"smiles": "CCCCCCCCCC(=O)N1CCCC(C(=O)N(CC)CC)C1", "note": "(centres unmarked) [Example 135, 1-decanoyl-N,N-diethylpiperidine-3-carboxamide]", "inhibition at 100 µM": "> 50"},
      {"smiles": "CCCCCCCCCCCC(=O)N1CCCC(C(=O)N2CCCC2)C1", "note": "(centres unmarked) [Example 136, 1-(3-(pyrrolidine-1-carbonyl)piperidin-1-yl)dodecan-1-one]", "inhibition at 100 µM": "< 20"},
      {"smiles": "CCCCCCCCOCCC(=O)N1CCCC(C(=O)N(CC)CC)C1", "note": "(centres unmarked) [Example 137, N,N-diethyl-1-(3-(octyloxy)propanoyl)piperidine-3-carboxamide]", "inhibition at 100 µM": "20 to 50"},
      {"smiles": "CCCCCCCN(C)CCCC(=O)N1CCCC(C(=O)N(CC)CC)C1", "note": "(centres unmarked) [Example 138, N,N-diethyl-1-(4-(heptyl(methyl)amino)butanoyl)piperidine-3-carboxamide]", "inhibition at 100 µM": "< 20"},
      {"smiles": "CCN(CC)C(=O)C1CCCN(C(=O)CCCCCCN(C)CCN(C)C)C1", "note": "(centres unmarked) [Example 139, 1-(7-((2-(dimethylamino)ethyl)(methyl)amino)heptanoyl)-N,N-diethylpiperidine-3-carboxamide]", "inhibition at 100 µM": "< 20"},
      {"smiles": "CCN(CC)C(=O)C1CCCN(C(=O)CCCCCCN2CCN(C)CC2)C1", "note": "(centres unmarked) [Example 140, N,N-diethyl-1-(7-(4-methylpiperazin-1-yl)heptanoyl)piperidine-3-carboxamide]", "inhibition at 100 µM": "< 20"},
      {"smiles": "CCN(CC)C(=O)C1CCCN(C(=O)CCCCCCCCCCCSC)C1", "note": "(centres unmarked) [Example 141, N,N-diethyl-1-(12-(methylthio)dodecanoyl)piperidine-3-carboxamide]", "inhibition at 100 µM": "> 50"},
      {"smiles": "CCN(CC)C(=O)C1CCCN(C(=O)CCCCCCCCCCCS(C)(=O)=O)C1", "note": "(centres unmarked) [Example 142, N,N-diethyl-1-(12-(methylsulfonyl)dodecanoyl)piperidine-3-carboxamide]", "inhibition at 100 µM": "20 to 50"}
    ]}
  ]
}
